Laboratory results reported in PubChem BioAssay (NCI).
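GI50 = concentration required for 50% inhibition of growth. TGI: total growth inhibition.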

Key:
Assay in all cases: NCI anticancer screen, dose series, 384-well format
[1] = tested on: OVCAR-3 ovarian
[2] = tested on: NCI-H226 lung
[3] = tested on: OVCAR-4 ovarian
[4] = tested on: OVCAR-8 ovarian
[5] = tested on: ACHN renal
[6] = tested on: HCC-2998 colon
[7] = tested on: RPMI-8226 leukemia
[8] = tested on: MALME-3M melanoma
[9] = tested on: SK-MEL-28 melanoma
[10] = tested on: IGROV1 ovarian
[11] = tested on: RXF 393 renal
[12] = tested on: HS 578T breast
[13] = tested on: BT-549 breast
[14] = tested on: T-47D breast
[15] = tested on: SF-268 CNS
[16] = tested on: SF-539 CNS
[17] = tested on: A498 renal
[18] = tested on: NCI-H322M lung
[19] = tested on: MOLT-4 leukemia
[20] = tested on: COLO 205 colon
[21] = tested on: HT29 colon
[22] = tested on: SNB-19 CNS
[23] = tested on: PC-3 prostate
[24] = tested on: NCI-H23 lung
[25] = tested on: SK-MEL-2 melanoma
[26] = tested on: U251 glioblastoma
[27] = tested on: LOX IMVI melanoma
[28] = tested on: 786-0 renal
[29] = tested on: NCI/ADR-RES ovarian
[30] = tested on: SK-OV-3 ovarian
[31] = tested on: DU-145 prostate
[32] = tested on: MDA-MB-435 melanoma
[33] = tested on: HOP-62 NSCLC
[34] = tested on: HOP-92 NSCLC
[35] = tested on: SK-MEL-5 melanoma
[36] = tested on: NCI-H522 lung
[37] = tested on: MDA-MB-231 breast
[38] = tested on: SW-620 colon
[39] = tested on: A549 NSCLC
[40] = tested on: EKVX NSCLC
[41] = tested on: SR leukemia
[42] = tested on: CCRF-CEM leukemia
[43] = tested on: UO-31 renal
[44] = tested on: KM12 colon
[45] = tested on: M14 melanoma
[46] = tested on: HCT-15 colon
[47] = tested on: MCF7 breast
[48] = tested on: HL-60(TB) leukemia
[49] = tested on: SNB-75 CNS
[50] = tested on: UACC-62 melanoma
[51] = tested on: UACC-257 melanoma
[52] = tested on: TK-10 renal
[53] = tested on: SF-295 CNS
[54] = tested on: SN12C renal
[55] = tested on: HCT-116 colon
[56] = tested on: CAKI-1 renal
[57] = tested on: K-562 leukemia
[58] = tested on: OVCAR-5 ovarian
[59] = tested on: NCI-H460 NSCLC
[60] = tested on: MDA-MB-468 breast

CN1C(=O)[C@@H](NC(=O)[C@H](CCC(F)(F)F)[C@H](CCC(F)(F)F)C(N)=O)N=C(c2ccccc2)c2ccccc21
GI50 [1]: 55.9 µM
TGI [1]: > 100 µM
GI50 [2]: > 52.7 µM
TGI [2]: > 100 µM
GI50 [3]: 43.4 µM
TGI [3]: > 100 µM
GI50 [4]: > 100 µM
TGI [4]: > 100 µM
GI50 [5]: > 100 µM
TGI [5]: > 100 µM
GI50 [6]: > 100 µM
TGI [6]: > 100 µM
GI50 [7]: 48.3 µM
TGI [7]: > 100 µM
GI50 [8]: > 100 µM
TGI [8]: > 100 µM
GI50 [9]: > 83.8 µM
TGI [9]: > 100 µM
GI50 [10]: > 100 µM
TGI [10]: > 100 µM
GI50 [11]: 23.9 µM
TGI [11]: > 84.7 µM
GI50 [12]: 24.7 µM
TGI [12]: > 100 µM
GI50 [13]: > 100 µM
TGI [13]: > 100 µM
GI50 [14]: 14.6 µM
TGI [14]: 65 µM
GI50 [15]: > 43.9 µM
TGI [15]: > 90.2 µM
GI50 [16]: > 100 µM
TGI [16]: > 100 µM
GI50 [17]: 42 µM
TGI [17]: > 100 µM
GI50 [18]: > 100 µM
TGI [18]: > 100 µM
GI50 [19]: 19.8 µM
TGI [19]: > 100 µM
GI50 [20]: > 79.5 µM
TGI [20]: > 100 µM
GI50 [21]: 62.5 µM
TGI [21]: > 100 µM
GI50 [22]: > 100 µM
TGI [22]: > 100 µM
GI50 [23]: > 94.6 µM
TGI [23]: > 100 µM
GI50 [24]: > 100 µM
TGI [24]: > 100 µM
GI50 [25]: > 100 µM
TGI [25]: > 100 µM
GI50 [26]: 98.8 µM
TGI [26]: > 100 µM
GI50 [27]: > 100 µM
TGI [27]: > 100 µM
GI50 [28]: 87.1 µM
TGI [28]: > 100 µM
GI50 [29]: > 100 µM
TGI [29]: > 100 µM
GI50 [30]: > 100 µM
TGI [30]: > 100 µM
GI50 [31]: > 100 µM
TGI [31]: > 100 µM
GI50 [32]: > 100 µM
TGI [32]: > 100 µM
GI50 [33]: > 100 µM
TGI [33]: > 100 µM
GI50 [34]: 33.9 µM
TGI [34]: > 100 µM
GI50 [35]: > 59.4 µM
TGI [35]: > 100 µM
GI50 [36]: 79.9 µM
TGI [36]: > 100 µM
GI50 [37]: > 93.3 µM
TGI [37]: > 100 µM
GI50 [38]: > 100 µM
TGI [38]: > 100 µM
GI50 [39]: 67.5 µM
TGI [39]: > 100 µM
GI50 [40]: > 100 µM
TGI [40]: > 100 µM
GI50 [41]: 13.6 µM
TGI [41]: 33.6 µM
GI50 [42]: 53.3 µM
TGI [42]: > 100 µM
GI50 [43]: 60.1 µM
TGI [43]: > 100 µM
GI50 [44]: > 100 µM
TGI [44]: > 100 µM
GI50 [45]: > 100 µM
TGI [45]: > 100 µM
GI50 [46]: > 95.7 µM
TGI [46]: > 100 µM
GI50 [47]: 40.9 µM
TGI [47]: > 100 µM
GI50 [48]: > 51.6 µM
TGI [48]: > 100 µM
GI50 [49]: 17.3 µM
TGI [49]: 96.8 µM
GI50 [50]: > 100 µM
TGI [50]: > 100 µM
GI50 [51]: > 63.2 µM
TGI [51]: > 100 µM
GI50 [52]: > 100 µM
TGI [52]: > 100 µM
GI50 [53]: 99.5 µM
TGI [53]: > 100 µM
GI50 [54]: > 100 µM
TGI [54]: > 100 µM
GI50 [55]: > 92.7 µM
TGI [55]: > 100 µM
GI50 [56]: 58.2 µM
TGI [56]: > 100 µM
GI50 [57]: 71.6 µM
TGI [57]: > 100 µM
GI50 [58]: > 100 µM
TGI [58]: > 100 µM
GI50 [59]: 84.4 µM
TGI [59]: > 100 µM

CC#C/C(=N\OC[C@H]1COCCN1)c1ccc2ncnc(Nc3ccc(OCc4cccc(F)c4)c(Cl)c3)c2c1
GI50 [1]: 1.19 µM
TGI [1]: 2.44 µM
GI50 [2]: 1.8 µM
TGI [2]: 3.38 µM
GI50 [3]: 1.28 µM
TGI [3]: 2.55 µM
GI50 [4]: 1.37 µM
TGI [4]: 2.67 µM
GI50 [60]: 0.0557 µM
TGI [60]: 0.368 µM
GI50 [5]: 0.523 µM
TGI [5]: 1.99 µM
GI50 [6]: 1.54 µM
TGI [6]: 2.89 µM
GI50 [7]: 0.959 µM
TGI [7]: 2.42 µM
GI50 [8]: 1.76 µM
TGI [8]: 3.15 µM
GI50 [9]: 1.77 µM
TGI [9]: 3.16 µM
GI50 [10]: 0.261 µM
TGI [10]: 1.87 µM
GI50 [11]: 0.864 µM
TGI [11]: 2.26 µM
GI50 [13]: 1.51 µM
TGI [13]: 2.85 µM
GI50 [14]: 1.02 µM
TGI [14]: 2.41 µM
GI50 [15]: 1.62 µM
TGI [15]: 3 µM
GI50 [16]: 1.59 µM
TGI [16]: 2.95 µM
GI50 [17]: 1.13 µM
TGI [17]: 2.34 µM
GI50 [18]: 0.102 µM
TGI [18]: 1.23 µM
GI50 [19]: 1.44 µM
TGI [19]: 2.76 µM
GI50 [20]: 1.96 µM
TGI [20]: 3.38 µM
GI50 [21]: 1.65 µM
TGI [21]: 3.04 µM
GI50 [22]: 1.67 µM
TGI [22]: 3.04 µM
GI50 [23]: 1.78 µM
TGI [23]: 3.2 µM
GI50 [24]: 2.02 µM
TGI [24]: 3.98 µM
GI50 [25]: 1.31 µM
TGI [25]: 2.58 µM
GI50 [26]: 1.88 µM
TGI [26]: 3.31 µM
GI50 [27]: 1.91 µM
TGI [27]: 3.33 µM
GI50 [28]: 1.31 µM
TGI [28]: 2.6 µM
GI50 [29]: 1.49 µM
TGI [29]: 4.02 µM
GI50 [30]: 0.246 µM
TGI [30]: 3.42 µM
GI50 [31]: 1.16 µM
TGI [31]: 2.42 µM
GI50 [32]: 1.89 µM
TGI [32]: 3.31 µM
GI50 [33]: 1.62 µM
TGI [33]: 2.98 µM
GI50 [34]: 0.981 µM
TGI [34]: 2.18 µM
GI50 [35]: 1.51 µM
TGI [35]: 2.85 µM
GI50 [36]: 0.0482 µM
TGI [36]: 1.29 µM
GI50 [37]: 1.73 µM
TGI [37]: 3.11 µM
GI50 [38]: 1.88 µM
TGI [38]: 3.3 µM
GI50 [39]: 1.17 µM
TGI [39]: 2.42 µM
GI50 [40]: 1.27 µM
TGI [40]: 2.54 µM
GI50 [41]: 0.393 µM
TGI [41]: 1.23 µM
GI50 [42]: 1.5 µM
TGI [42]: 2.84 µM
GI50 [43]: 1.52 µM
TGI [43]: 2.86 µM
GI50 [44]: 1.76 µM
TGI [44]: 3.16 µM
GI50 [45]: 1.95 µM
TGI [45]: 3.37 µM
GI50 [46]: 1.67 µM
TGI [46]: 3.05 µM
GI50 [47]: 1.5 µM
TGI [47]: 2.85 µM
GI50 [48]: 2.23 µM
TGI [48]: 3.69 µM
GI50 [49]: 1.87 µM
TGI [49]: 3.27 µM
GI50 [50]: 1.65 µM
TGI [50]: 3.02 µM
GI50 [51]: 1.52 µM
TGI [51]: 2.85 µM
GI50 [52]: 0.404 µM
TGI [52]: 1.88 µM
GI50 [53]: 1.82 µM
TGI [53]: 3.22 µM
GI50 [54]: 1.28 µM
TGI [54]: 2.55 µM
GI50 [55]: 1.66 µM
TGI [55]: 3.05 µM
GI50 [56]: 1.12 µM
TGI [56]: 2.34 µM
GI50 [57]: 1.7 µM
TGI [57]: 3.09 µM
GI50 [58]: 1.8 µM
TGI [58]: 3.59 µM
GI50 [59]: 1.75 µM
TGI [59]: 3.18 µM
